From patent EP4699605A1, “USE OF NOVEL COMPOUND FOR TREATING INTRACTABLE DISEASES” (YJ Cerapeutics Inc., priority 2023, dated 2024)

Legend:
[1] = Observation of sedation as a side effect at high doses; assay type: in vivo, rats; conditions: 100 mg/kg
[2] = test system: JAK/STAT3 pathway; experiment: Signaling pathway analysis in SNI model (Western blot): JAK/STAT3; assay type: in vivo, Sprague-Dawley rats; conditions: 4 weeks after nerve injury
Protocol: (§1) To determine through which signaling pathway YJ102 inhibited a neuroinflammatory response, there was analyzed increased expression and activation of histone demethylase JMJD3 and expression changes of factors associated with JAK/STAT3 pathway, mTOR pathway, and TRPM7-mediated pathway, which were known as important regulatory mechanisms and epigenetic regulators mediating the neuroinflammatory response, in the tissues of the SNI animal model 4 weeks after nerve injury.

[3] = test system: JMJD3; experiment: Signaling pathway analysis in SNI model (Western blot): JMJD3 expression and activation; assay type: in vivo, Sprague-Dawley rats; conditions: 4 weeks after nerve injury
Protocol: as §1

[4] = test system: nerve injury animal models (SCI, LSS, SNI); experiment: Mechanical allodynia (von-Frey filaments, 50% paw withdrawal threshold) in nerve injury animal models; assay type: in vivo, Sprague-Dawley rats
Protocol: To be used as a central nerve injury animal model, a traumatic spinal cord injury (SCI) model was prepared (FIG. 1A). Specifically, 230 to 250 g of male adult Sprague-Dawley rats were anesthetized by intraperitoneal injection of chloral hydrate (500 mg/kg), and then the back and neck regions were shaved, and the spinal cord under the back and neck regions was exposed without damaging the dura mater, and a laminectomy was performed at T9 to T10 levels. To stabilize the spine, the spinous processes of T8 and T11 were fixed, and the spine was damaged by free-falling a 10 g weight from a height of 25 mm using an NYU impactor onto the back surface of the exposed spinal cord and then the rats were left in a temperature and humidity-controlled chamber overnight while covering the muscles and skin. After surgery, the rats were subcutaneously injected with a supplement solution (5 ml, lactated ringer) and injected with antibiotics (gentamicin, 5 mg/kg, intramuscular injection) once daily for 5 days. The body weight, remaining food, and the weight of water were confirmed and recorded for all animals, and the bladder was emptied twice daily by passive bladder massage until reflex micturition was established. At this time, a Sham group was a group that was subjected to only laminectomy without damage.
To be used as a peripheral nerve injury animal model, a lumbar spinal stenosis (LSS) model was prepared (FIG. 1B). Specifically, 260 to 280 g of adult male Sprague-Dawley rats were anesthetized with intraperitoneal injection of chloral hydrate (500 mg/kg), the back region was shaved, and then the spinal plate was exposed at L4 to S2 levels. After removing the ligamentous section between L4 and L5, a trapezoidal silicone block (1.00 mm long × 1.3 to 1.2 mm wide × 1.0 mm high) was inserted into the epidural space below the L5 and L6 spinal plates without damaging the dural sac. At this time, a Sham group was a group that was subjected to only posterior […] on the animal without inserting a silicone block.
To be used as a peripheral nerve injury animal model, a sciatic nerve injury (SNI) model was prepared (FIG. 1C). Specifically, 200 to 220 g of male adult Sprague-Dawley rats were anesthetized by intraperitoneal injection of chloral hydrate (500 mg/kg), and then three terminal branches (tibial, common peroneal, and sural nerves) of the right sciatic nerve were approached, and the tibia nerve and the peroneal nerve were tightly ligated with 4-0 silk, and neurectomy was performed at a distal 3 mm position of the ligation site. At this time, a Sham group was a group that exposed only the sciatic nerve without damage.
In order to confirm a neuropathic pain inhibitory effect of YJ102 (Chemical Formula 1), a compound of the present disclosure, in the three nerve injury animal models prepared in Example 1 above, rats having pain on week 3 (SNI model) or week 4 (SCI model and LSS model) after surgery were selected and administered orally (p.o.) at 10 mg/kg or 20 mg/kg of YJ102 dissolved in a solution of DMSO, methyl pyrrolidinone, and water (1 : 1.5 : 1), or intraperitoneally injected (i.p. injection) at 1, 2, or 5 mg/kg of YJ102. In a positive control group, gabapentin or pregabalin dissolved in saline was intraperitoneally injected at a concentration of 5 mg/kg, and in a Vehicle group, the same amount of a solution of DMSO, methyl pyrrolidinone, and water was administered. Thereafter, in order to measure mechanical allodynia, the rats were located at the bottom of a transparent plastic box (10 cm × 10 cm) on top of a wire mesh (3 mm × 3 mm) and subjected to an adaptation period for approximately 20 minutes. Von-Frey filaments were applied to the soles of both paws and used with stiff nylon von-Frey monofilament series ([…], Stoelting, WoodDale, IL, USA; equivalent in grams to 0.4, 0.6, 1.0, 2.0, 4.0, 6.0, 8.0 and 15.0) with logarithmic increases in tactile (mechanical) sensitivity. […]

[5] = test system: neutrophils and macrophages; experiment: Introduction of neutrophils and macrophages into the bladder after SCI (immunofluorescence); assay type: in vivo, Sprague-Dawley rats
Description: When bladder dysfunction occurred due to spinal cord injury, cystitis, etc., a decrease in tight junction protein in the urothelium in contact with urine occurred, which increased the permeability of the bladder wall to introduce the harmful substances into the tissue, and caused the death of the urothelium serving as a barrier, and an increase in inflammatory response in the bladder. In order to determine what effect the compound YJ102 of the present disclosure had on these pathological processes, the expression of tight junction proteins ZO-1 and occludin was confirmed by Western blot analysis and immunofluorescence staining, and the introduction of neutrophils and macrophages into the bladder was confirmed by immunofluorescence staining. Specifically, the cut bladder tissue sections were frozen in liquid nitrogen, ground in a mortar and pestle to be completely lysed, and homogenized by adding Lysis Buffer [50 mM Tris-HCl (pH 7.4), 150 mM NaCl, 2 mM MgCl2, 0.1% NP40]. The homogenized tissue sections were transferred to a microcentrifuge tube, rock at 4°C for 20 minutes, and then centrifuged at 25,000 × g for 10 minutes. The supernatant was transferred to a new microcentrifuge, the protein concentrations were measured using a BCA kit, and then samples for Western blot were prepared by adding a 1X sample buffer and boiling for 5 minutes. […]

[6] = all three models (SCI, LSS, SNI), orally 10 mg/kg or 20 mg/kg

With `CCc1ccc(N(C(=O)COC)c2nc3cc(Cl)ccc3o2)cc1` [YJ102] the “sedation as a side effect” value [1] was “not observed”, the “phosphorylation of JAK2” value [2] was “significantly reducing” and the “phosphorylation of STAT3” value [2] was “significantly reducing”. For the same compound, the “demethylation activation of H3K27Me3” value [3] was “significantly inhibited”, the “expression of JMJD3” value [3] was “significantly inhibited” and the “duration of the analgesic effect” value [4, 6] was no less than 4 h. The “time from which the mechanical allodynia threshold was increased after administration” value [4, 6] was 30 min, the “analgesic effect compared with gabapentin or pregabalin” value ([4]; intraperitoneal, same concentration as gabapentin or pregabalin, SCI, LSS, SNI models) was “more than twice as high” and the “duration of the analgesic effect compared with existing drugs” value ([4]; intraperitoneal, versus gabapentin and pregabalin, SCI, LSS, SNI models) was “more than three times longer”. For the same compound, the “introduction of MPO-positive neutrophils into the bladder” value ([5]; after spinal cord injury (day 1)) was “significantly inhibited” and the “introduction of ED-1-positive macrophages into the bladder” value ([5]; after spinal cord injury (day 7)) was “significantly inhibited”.
